In US11964971B2, “Methods and compositions for modulating splicing” (Skyhawk Therapeutics, Inc., priority 2019, dated 2024):
Like-named read-outs stand apart in the source and are kept apart here.

Columns and labels:
SMN FL and SMN Δ7 = assay: Quantitative splicing assay (SMN) in SMA patient fibroblasts (GM03813); type: cell-based; settings: Homo sapiens, Fibroblast; class symbol; read-out: SMN2 Splicing FL EC50 (nM)*
Protocol: Spinal muscular atrophy (SMA) patient fibroblasts (GM03813, Coriell) are plated in 96-well plates at 50,000 cells/well. […] Treated cells are lysed and cDNA synthesized using the Fast Advanced Cells-to-Ct kit (Thermofisher A35378) according to the manufacturer's instructions. 2 μL of each cDNA are used in qPCR reactions. […] Reactions are run in a Quant Studio 6 qPCR instrument with default settings.

SMN protein = SMN protein assay (MSD) in SMA patient fibroblasts (GM03813); type: cell-based, human
Procedure, shortened: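 SMA patient fibroblasts GM03813 (7000 cells/well) treated 48 h with compounds from 2.5 μM to 0.6 nM. Lysate SMN protein quantified by MSD immunoassay against an SMN standard curve (1 to 19.5 μg/ml) on each plate, giving absolute amounts.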

[1] = test system: MDR1-MDCK cell monolayers; settings: dog, MDCK-MDR1, 120 min, 5 μM, pH 7.4
[2] = test system: MDR1-MDCK cell monolayers; assay: MDCK-MDR1 permeability assay, blood-brain-barrier penetration potential; settings: for MDCK-MDR1 Efflux Ratio: dog, MDCK-MDR1, 120 min, 5 μM, pH 7.4
MDR1 (P-gp) [3] = assay: in vitro; settings: dog, MDCK-MDR1, pH 7.4
MDR1 [4] = assay: in vitro; settings: dog; for Papp A→B at 120 min, 5 μM: MDCK-MDR1, pH 7.4, MDCK-MDR1: Papp A-B (10^−6, cm/s); for Papp B→A at 120 min, 5 μM: MDCK-MDR1, pH 7.4, MDCK-MDR1: Papp B-A (10^−6, cm/s)
MDR1 (P-gp) [5] = assay: MDCK-MDR1 permeability assay, blood-brain-barrier penetration potential; settings: dog, MDCK-MDR1, pH 7.4, MDCK-MDR1 Efflux Ratio
MDR1 [6] = assay: as above; settings: dog, MDCK-MDR1, pH 7.4

| Structure (SMILES) | EC50 (SMN FL and SMN Δ7) [nM] | EC50 (SMN protein) [nM] | MDCK-MDR1: % Recov A-B (%) [1] [%] | MDCK-MDR1: % Recov B-A (%) [1] [%] | MDCK-MDR1: Papp A-B (10^−6, cm/s) [1] | MDCK-MDR1: Papp B-A (10^−6, cm/s) [1] | MDCK-MDR1 Efflux Ratio [2] | efflux ratio at 120 min, 5 μM (MDR1 (P-gp) [3]) | Papp A→B at 120 min, 5 μM (MDR1 [4]) [nm/s] | Papp B→A at 120 min, 5 μM (MDR1 [4]) [nm/s] | efflux ratio at 120 min, 5 μM (MDR1 (P-gp) [5]) | MDCK-MDR1: % Recov A-B (%) [2] [%] | MDCK-MDR1: % Recov B-A (%) [2] [%] | Papp A→B at 120 min, 5 μM (MDR1 [6]) [nm/s] | Papp B→A at 120 min, 5 μM (MDR1 [6]) [nm/s] |
| --- | --- | --- | --- | --- | --- | --- | --- | --- | --- | --- | --- | --- | --- | --- | --- |
| CN(c1cnc(-c2cc(F)c(-c3cnn(C)c3)cc2O)cn1)[C@H]1C[C@@H]2CCC(N2)[C@H]1F (single isomer, unassigned) [Compound 17E2] | 101 to 500 | 0.01 to 15 | 24 | 52 | 4.68 10^−6, cm/s | 18 10^−6, cm/s | 4 | – | – | – | – | – | – | – | – |
| Cn1cc(-c2ccc(-c3cnc(N(C4CC4)[C@@H]4CC5CC[C@H](N5)[C@@H]4F)cn3)c(O)c2)cn1 (single isomer, unassigned) [Compound 49E2] | – | 501 to 10000 | 48 | 63 | 4.55 10^−6, cm/s | 34.9 10^−6, cm/s | 8 | – | – | – | – | – | – | – | – |
| COc1cc(-c2cc(O)c(-c3cnc(N(C)[C@@H]4C[C@@]5(C)CC[C@](C)(N5)[C@@H]4F)cn3)cc2F)cnn1 (single isomer, unassigned) [Compound 64E2] | – | 101 to 500 | 69 | 78 | 4.1 10^−6, cm/s | 44.1 10^−6, cm/s | 11 | – | – | – | – | – | – | – | – |
| CNC(=O)/C=C/c1cc(O)c(-c2cnc(N(C3CC3)[C@H]3C[C@]4(C)CC[C@@](C)(N4)[C@H]3F)cn2)cc1F (single isomer, unassigned) [Compound 79E2] | – | – | 91 | 89 | – | – | – | 26 | 20.5 | 527 | – | – | – | – | – |
| CN(c1cnc(-c2ccc(-c3cn[nH]c3)cc2O)cn1)[C@@H]1C[C@@]2(C)CC[C@](C)(N2)[C@@H]1F [Compound 22E1, 2-(5-(((1S,2R,3R,5R)-2-fluoro-1,5-dimethyl-8-azabicyclo[3.2.1]octan-3-yl)(methyl)amino)pyrazin-2-yl)-5-(1H-pyrazol-4-yl)phenol] | – | 501 to 10000 | – | – | – | – | – | – | – | – | 10 | 63 | 78 | 41.4 | 398 |
| CN(c1cnc(-c2ccc(-c3cn[nH]c3)cc2O)cn1)[C@H]1C[C@]2(C)CC[C@@](C)(N2)[C@H]1F [Compound 22E2, 2-(5-(((1R,2S,3S,5S)-2-fluoro-1,5-dimethyl-8-azabicyclo[3.2.1]octan-3-yl)(methyl)amino)pyrazin-2-yl)-5-(1H-pyrazol-4-yl)phenol] | – | 501 to 10000 | – | – | – | – | – | – | – | – | 10 | 66 | 81 | 34.9 | 345 |
| CN(c1cnc(-c2cc(F)c(-c3ccn(C)c(=O)c3)cc2O)cn1)[C@@H]1C[C@@]2(C)CC[C@](C)(N2)[C@@H]1F [Compound 62E1, 4-(2-fluoro-4-(5-(((1S,2R,3R,5R)-2-fluoro-1,5-dimethyl-8-azabicyclo[3.2.1]octan-3-yl)(methyl)amino)pyrazin-2-yl)-5-hydroxyphenyl)-1-methylpyridin-2(1H)-one] | – | 501 to 10000 | – | – | 2.88 10^−6, cm/s | 41.5 10^−6, cm/s | 14 | – | 28.2 | 307 | 11 | – | – | – | – |
